US6914045B2, “Glycopeptide antibiotics” (Wyeth Holdings Corporation, priority 2001, dated 2005)
In brackets after ≈: the same amount, converted by molar mass.

Tests used:
Test in all cases: in vitro antibacterial evaluation, MIC by broth dilution
Assay type in all cases: cell-based
[1] = test system: Enterococcus sp.; conditions: broth dilution, 18 hours at 35° C.; for MIC Enterococcus faecalis (ATCC 29212): strain ATCC 29212; for MIC Enterococcus faecium (GC 2243): strain GC 2243; for MIC Enterococcus faecalis (GC 4552): strain GC 4552; for MIC Enterococcus faecalis (GC 4553): strain GC 4553; for MIC Enterococcus faecalis (GC 4554): strain GC 4554; for MIC Enterococcus faecium (GC 4556): strain GC 4556; for MIC Enterococcus faecium (GC 4557): strain GC 4557; for MIC Enterococcus avium (GC 4558): strain GC 4558; for MIC Enterococcus faecalis (GC 6189): strain GC 6189
How it was run: (§1)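 MIC, the lowest antibiotic concentration preventing growth, was read across 64-0.06 μg/mL with 5×10^5 CFU/mL inoculum. Method followed NCCLS M7-A2 broth dilution using Mueller-Hinton II; Gram-positive strains covered recent methicillin-, penicillin- and/or vancomycin-resistant clinical isolates.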

[2] = test system: Escherichia coli
How it was run: as §1

[3] = test system: Staphylococcus sp.; conditions: broth dilution, 18 hours at 35° C.; for MIC Staphylococcus aureus (GC 1131): strain GC 1131
How it was run: as §1

[4] = test system: Streptococcus sp.; conditions: broth dilution, 18 hours at 35° C.
How it was run: as §1

CC(c1ccccc1)C1NC(=O)CNC(=O)C(CO)NC(=O)C(C(O)C2CNC(=N)N2C2OC(CO)C(O)C(O)C2O)NC(=O)C(C(O)C2CNC(=N)N2)NC(=O)C(Cc2ccc(OC3OC(CO)C(OC4OC5COC(c6ccc(S(C)(=O)=O)cc6)OC5C(O)C4O)C(O)C3O)cc2)NC1=O (centres unmarked) [Example 157]
MIC Enterococcus faecalis (GC 2242) ([1]; Enterococcus faecalis (GC 2242)): 64 µg/mL (≈ 43.8 µM) | MIC Enterococcus faecalis (GC 2691) ([1]; Enterococcus faecalis (GC 2691)): >64 µg/mL | MIC Enterococcus faecalis (GC 3059) ([1]; Enterococcus faecalis (GC 3059)): >64 µg/mL | MIC Enterococcus faecalis (ATCC 29212) ([1]; inoculum 5×10^5 CFU/mL): >64 µg/mL | MIC Enterococcus faecium (GC 2243) ([1]; inoculum 5×10^5 CFU/mL): 64 µg/mL (≈ 43.8 µM) | MIC Enterococcus faecalis (GC 4552) ([1]; inoculum 5×10^5 CFU/mL): >64 µg/mL | MIC Enterococcus faecalis (GC 4553) ([1]; inoculum 5×10^5 CFU/mL): >64 µg/mL | MIC Enterococcus faecalis (GC 4554) ([1]; inoculum 5×10^5 CFU/mL): >64 µg/mL | MIC Enterococcus faecium (GC 4556) ([1]; inoculum 5×10^5 CFU/mL): >64 µg/mL | MIC Enterococcus faecium (GC 4557) ([1]; inoculum 5×10^5 CFU/mL): 8 µg/mL (≈ 5.47 µM) | MIC Enterococcus avium (GC 4558) ([1]; inoculum 5×10^5 CFU/mL): 64 µg/mL (≈ 43.8 µM) | MIC Enterococcus faecalis (GC 6189) ([1]; inoculum 5×10^5 CFU/mL): >64 µg/mL | MIC Enterococcus faecalis (ATCC 29212) [1]: >64 µg/mL | MIC Enterococcus faecalis (GC 2242) ([1]; strain GC 2242): 64 µg/mL (≈ 43.8 µM) | MIC Enterococcus faecium (GC 2243) [1]: 64 µg/mL (≈ 43.8 µM) | MIC Enterococcus faecalis (GC 2691) ([1]; strain GC 2691): >64 µg/mL | MIC Enterococcus faecalis (GC 3059) ([1]; strain GC 3059): >64 µg/mL | MIC Enterococcus faecalis (GC 4552) [1]: >64 µg/mL | MIC Enterococcus faecalis (GC 4553) [1]: >64 µg/mL | MIC Enterococcus faecalis (GC 4554) [1]: >64 µg/mL | MIC Enterococcus faecium (GC 4556) [1]: >64 µg/mL | MIC Enterococcus faecium (GC 4557) [1]: 8 µg/mL (≈ 5.47 µM) | MIC Enterococcus avium (GC 4558) [1]: 64 µg/mL (≈ 43.8 µM) | MIC Enterococcus faecalis (GC 6189) [1]: >64 µg/mL | MIC Escherichia coli (ATCC 25922) ([2]; strain ATCC 25922, 18 hours at 35° C.): >64 µg/mL | MIC Escherichia coli (GC 4559) ([2]; strain GC 4559, 18 hours at 35° C.): >64 µg/mL | MIC Staphylococcus aureus (GC 1131) ([3]; inoculum 5×10^5 CFU/mL): 32 µg/mL (≈ 21.9 µM) | MIC Staphylococcus aureus (ATCC 29213) ([3]; strain ATCC 29213): 32 µg/mL (≈ 21.9 µM) | MIC Staphylococcus aureus (GC 1131) [3]: 32 µg/mL (≈ 21.9 µM) | MIC Staphylococcus aureus (GC 3051) ([3]; strain GC 3051): 16 µg/mL (≈ 10.9 µM) | MIC Staphylococcus aureus (GC 3053) ([3]; strain GC 3053): 32 µg/mL (≈ 21.9 µM) | MIC Staphylococcus aureus (GC 4541) ([3]; strain GC 4541): 16 µg/mL (≈ 10.9 µM) | MIC Staphylococcus aureus (GC 4542) ([3]; strain GC 4542): 32 µg/mL (≈ 21.9 µM) | MIC Staphylococcus aureus-SMITH (GC 4543) ([3]; strain GC 4543): 16 µg/mL (≈ 10.9 µM) | MIC Staphylococcus aureus (GC 4544) ([3]; strain GC 4544): 32 µg/mL (≈ 21.9 µM) | MIC Staphylococcus aureus (GC 4545) ([3]; strain GC 4545): 16 µg/mL (≈ 10.9 µM) | MIC Staphylococcus haemolyticus (GC 4546) ([3]; strain GC 4546): 16 µg/mL (≈ 10.9 µM) | MIC Coagulase Negative Staphylococcus (GC 4547) ([3]; strain GC 4547): 16 µg/mL (≈ 10.9 µM) | MIC Coagulase Negative Staphylococcus (GC 4548) ([3]; strain GC 4548): 8 µg/mL (≈ 5.47 µM) | MIC Coagulase Negative Staphylococcus (GC 4549) ([3]; strain GC 4549): 8 µg/mL (≈ 5.47 µM) | MIC Coagulase Negative Staphylococcus (GC 4551) ([3]; strain GC 4551): 32 µg/mL (≈ 21.9 µM) | MIC Coagulase Negative Staphylococcus (GC 6257) ([3]; strain GC 6257): 4 µg/mL (≈ 2.74 µM) | MIC Staphylococcus aureus-SMITH (GC 4543) ([3]; strain SMITH GC 4543): 16 µg/mL (≈ 10.9 µM) | MIC Streptococcus agalactiae (GC 4564) ([4]; Streptococcus agalactiae (GC 4564)): 16 µg/mL (≈ 10.9 µM) | MIC Streptococcus pneumoniae (ATCC 6301) ([4]; Streptococcus pneumoniae (ATCC 6301)): 4 µg/mL (≈ 2.74 µM) | MIC Streptococcus pneumoniae (GC 1894) ([4]; Streptococcus pneumoniae (GC 1894)): 4 µg/mL (≈ 2.74 µM) | MIC Streptococcus pneumoniae (GC 4565) ([4]; Streptococcus pneumoniae (GC 4565)): 4 µg/mL (≈ 2.74 µM) | MIC Streptococcus pyogenes (GC 4563) ([4]; Streptococcus pyogenes (GC 4563)): 8 µg/mL (≈ 5.47 µM) | MIC Streptococcus pneumoniae (ATCC 6301) ([4]; strain ATCC 6301): 4 µg/mL (≈ 2.74 µM) | MIC Streptococcus pneumoniae (GC 1894) ([4]; strain GC 1894): 4 µg/mL (≈ 2.74 µM) | MIC Streptococcus pyogenes (GC 4563) ([4]; strain GC 4563): 8 µg/mL (≈ 5.47 µM) | MIC Streptococcus agalactiae (GC 4564) ([4]; strain GC 4564): 16 µg/mL (≈ 10.9 µM) | MIC Streptococcus pneumoniae (GC 4565) ([4]; strain GC 4565): 4 µg/mL (≈ 2.74 µM)
